Reference: patent US6806285B1, “5-Hydroxyl indole derivatives for treating glaucoma” (Alcon, Inc., priority 2000, dated 2004)

Columns and labels:
[1] = Solution stability, accelerated stress test; assay type: physicochemical; conditions: 14 days; for Predicted Shelf Life: 25° C., loss of 10% compound (T90), extrapolated from 75° C., pH 5 0.025 M sodium citrate buffer, HPLC
Procedure: The solution stability of the example compounds were assessed using an accelerated stress test. The compound was dissolved in pH 5, 0.025 M sodium citrate buffer (5˜15 μg/mL). In duplicate, 2 mL of each solution in a glass vial was heated at 75° C. for 14 days. Samples were analyzed periodically using HPLC and % degradation was calculated for the sample. The predicted shelf life (25° C.) was based on the loss of 10% compound (T90) and the fact that the rate of degradation for a first order reaction decreased 50% for every 10° C. drop in temperature.

[2] = tested on: hypertensive cynomolgus monkeys; conditions: dose 250 μg, cited from earlier work

## CC(N)Cc1c[nH]c2ccc(OC(=O)C3CC3)cc12 (stereo not drawn) [Example 4, Cyclopropanecarboxylic acid 3-(2-aminopropyl)-1H-indol-5yl ester]
[1]
  Predicted Shelf Life: 5.81 months

## CC(N)Cc1c[nH]c2ccc(OC(=O)C(C)C)cc12 (stereo not drawn) [Example 2, Isobutyric acid 3-(2-aminopropyl)-1H-indol-5yl ester]
[1]
  Predicted Shelf Life: 3.36 months

## CC(N)Cc1c[nH]c2ccc(OC(=O)C(C)(C)C)cc12 (stereo not drawn) [Example 3, 2,2-Dimethyl-propionic acid 3-(2-aminopropyl)-1H-indol-5yl ester]
[1]
  Predicted Shelf Life: 11.3 months

## CCC(=O)Oc1ccc2[nH]cc(CC(C)N)c2c1 (stereo not drawn) [Example 1, Propionic acid 3-(2-aminopropyl)1H-indol-5-yl ester]
[1]
  Predicted Shelf Life: 1.32 months
[1]; stress conditions: pH 5 citrate buffer, 75° C.
  Stability relative to the parent compound α-methylserotonin (oxidative degradation and ester hydrolysis): did not provide an increase in the stability of the parent compound

## NCCc1c[nH]c2ccc(O)cc12 [Serotonin]
[2]
  Percent IOP Reduction ± SEM, 1 hour after dose: 13.3 ± 5.31%
  Percent IOP Reduction ± SEM, 3 hours after dose: 18.0 ± 5.12%
  Percent IOP Reduction ± SEM, 6 hours after dose: 2.0 ± 7.39%

## CC(N)Cc1c[nH]c2ccc(O)cc12 (stereo not drawn) [α-methylserotonin, 3-(2-aminopropyl)-1H-indol-5-ol]
[1]
  Predicted Shelf Life: 2.6 months
[2]
  Percent IOP Reduction ± SEM, 1 hour after dose: 14.2 ± 4.39%
  Percent IOP Reduction ± SEM, 3 hours after dose: 25.8 ± 5.16%
  Percent IOP Reduction ± SEM, 6 hours after dose: 30.8 ± 7.72%
